# Test results reported in US10526322B2, “Inhibitors of kidney-type glutaminase, GLS-1” (CORNELL UNIVERSITY, priority 2014, dated 2020).
# How the values were obtained:
# [1] = biological target: T1, monomeric GAC (D391K, K316E, R459E) (Mus musculus, UniProt D3Z7P3, D391K/K316E/R459E); assay: 968 binding to GAC mutants, quenching of 488 fluorescence; conditions: 10 nM total monomer
# T1 construct: (residues 72-603) was cloned into a pET23a vector; His-tag with thrombin cleavage site (N); made in house
# T1 sequence (D3Z7P3 72-603 isoform D3Z7P3-2 K316E/D391K/R459E): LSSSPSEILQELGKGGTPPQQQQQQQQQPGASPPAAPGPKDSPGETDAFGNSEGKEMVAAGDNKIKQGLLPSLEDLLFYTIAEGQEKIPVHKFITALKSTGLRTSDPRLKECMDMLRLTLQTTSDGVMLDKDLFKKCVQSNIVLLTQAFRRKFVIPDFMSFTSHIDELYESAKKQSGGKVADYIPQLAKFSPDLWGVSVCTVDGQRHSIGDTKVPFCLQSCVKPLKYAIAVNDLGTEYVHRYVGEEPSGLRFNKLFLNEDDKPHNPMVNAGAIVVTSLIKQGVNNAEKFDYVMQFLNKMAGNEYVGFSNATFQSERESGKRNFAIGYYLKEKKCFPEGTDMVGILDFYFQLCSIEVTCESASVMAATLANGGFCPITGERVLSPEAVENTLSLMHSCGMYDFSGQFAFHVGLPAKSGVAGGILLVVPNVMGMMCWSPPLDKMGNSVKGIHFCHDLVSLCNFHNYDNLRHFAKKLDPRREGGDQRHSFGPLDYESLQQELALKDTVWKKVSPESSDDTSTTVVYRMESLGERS
# Procedure: Real-time fluorescence monitoring of 968 binding and GAC activity through production of NADH was performed on a Varian Cary Eclipse Fluorometer, whereas small molecule inhibition and binding titrations were performed in a 96-well format in a Tecan Saphire absorbance and fluorescence plate reader. Samples for monitoring real-time binding of 968 to 488-GAC were prepared by adding 10 μL of varying concentrations of 968 prepared in DMSO to an equilibrated 1 mL sample of 10 nM 488-GAC, while observing 488 fluorescence (490 nm excitation/520 nm emission). […] WT GAC (10 nM) was added and allowed to equilibrate 2 minutes before monitoring the fluorescence emission of 488-GAC (490 nm excitation, 520 nm emission) and NADH (340 nm excitation, 490 nm emission). […] The activity of GAC was measured in a coupled assay, by monitoring the NADH produced by glutamate dehydrogenase, which converts the product of the glutaminase-catalyzed reaction, glutamate, to α-ketoglutarate and ammonia by reducing NAD+ to NADH. Because solutions containing glutamine undergo non-enzymatic degradation to glutamate, samples were further analyzed by […] under identical experimental conditions. […]
# [2] = biological target: T2, K316E/D391K/R459E GAC mutant (Mus musculus, UniProt D3Z7P3, D391K/K316E/R459E); assay: In vitro photo cross linking of SU-22 and purification of the conjugate; assay type: binding
# T2 construct: (residues 72-603) was cloned into a pET23a vector; made in house
# T2 sequence (D3Z7P3 72-603 isoform D3Z7P3-2 K316E/D391K/R459E): T1 sequence (D3Z7P3 72-603 isoform D3Z7P3-2 K316E/D391K/R459E)
# Procedure: Glutaminase proteins of the WT sequence, or containing the mutations D391K alone, or the mutations K316E/D391K/R459E, were purified as detailed in Example 3 supra. These glutaminase proteins were incubated with increasing concentrations of the compound SU-22, and excited with a hand held UV lamp for 120 seconds. Immediately following UV exposure, samples were loaded onto a 4-20% Tris-Glycine polyacrylamide gel after the addition of SDS-PAGE sample buffer (50 mM Tris-HCl (pH=6.8), 2% SDS, 10% glycerol, 1% β-mercaptoethanol, 12.5 mM EDTA, 0.02% bromophenol blue), and visualized on a UV light box.
# Conditions of in vitro cross linking of WT GAC, and the K316E/D391K/R459E GAC mutant were adapted for efficient cross linking and purification of the cross linked protein product. WT GAC and the K316E/D391K/R459E GAC mutant, both containing the N-terminal His-tag, were diluted to a concentration of 100 nM in 20 mM Tris-HCl (pH=8.6) 100 mM NaCl, upon which 10 μM of SU-22 was added. […] The purified cross linked protein was then concentrated using spin columns with a 30 kD molecular weight cutoff and quantified using UV-vis spectroscopy, where the protein was quantified using the A280 (ε280=38,850 M−1 cm−1) and the cross-linked SU-22 using the A350 (ε350=18,900 M−1 cm−1). […]
affinity for 968 compared with WT 488-GAC and dimeric GAC (D391K) [1],"ratio of cross linked SU-22 to protein ([2]; 100 nM K316E/D391K/R459E GAC, 10 μM SU-22, UV, A350/A280)","efficiency of cross linking compared with dimer (D391K) or WT GAC ([2]; UV exposure, SDS-PAGE)",SMILES
highest affinity,–,–,CN(C)c1ccc(C2Nc3ccc4ccccc4c3C3=C2C(=O)CC(C)(C)C3)cc1Br (stereo not drawn) [Compound 968]
–,0.78,more efficient,CC1(C)CC(=O)C2=C(C1)c1c(ccc3cc4ccccc4cc13)NC2c1ccc(N=[N+]=[N-])cc1 (stereo not drawn) [SU-22]
